“And” between values parts separate entries of the source, which are not always exact repeats. Identical values can stand only once.
How the values were obtained:
[1] = test system: GL-3 inclusions in superficial endothelial cell capillaries; test: Clinical study in Fabry disease patients: GL-3 inclusion volume fraction by electron microscopy; type: in vivo, human; settings: 15 mg/day oral
Text: In addition to scoring GL-3 skin inclusions by light microscopy, the fraction of the volume of endothelial cell cytoplasm occupied by GL-3 inclusions was estimated using point-counting of electron microscopic images by a masked reader. Images from at least 50 superficial endothelial cell capillaries were obtained using electron microscopy at 7500× magnification. Two-sided t tests were used to evaluate differences between baseline and post-treatment values at each time point.

[2] = test system: GL-3 inclusions in skin cells; test: Clinical study in Fabry disease patients: skin GL-3 inclusion score by light microscopy; type: in vivo, human
Protocol: A three-year open-label investigation of Compound 2 in young classic Fabry disease patients was conducted in order to evaluate the long-term safety, pharmacodynamics and exploratory efficacy of Compound 2 in adult male Fabry patients. Eleven subjects enrolled in the study, and seven subjects completed all aspects of the study. All subjects were males diagnosed with classic Fabry disease confirmed by genotype and residual alpha-galactosidase activity below detection levels (9 of the 11 had nonsense mutation in the GLA gene). All subjects had lyso-GL3 levels in plasma of at least 65 ng/mL and had no prior Fabry disease-specific treatment. The median age of subject was 24 years (range 19-37).
Each sample was scored independently by 3 pathologists for the presence of GL-3 inclusions on a four-point scale, and rated as 0 (no/trace), 1 (mild), 2 (moderate), or 3 (severe) according to Eng et al., N. Engl. J. Med. 345:9-16 (2001). A single score per patient per time point was derived by taking the score rated by the majority of the three pathologists. If a majority score could not be derived, then the median score was used (resulting in some fractional scores). Plasma samples were also analyzed for GL-3, lyso-GL-3, GL-1 and GM3 at baseline and weeks 12, 26, 52 and 156. Pain scores and abdominal symptoms were analyzed at baseline and weeks 12, 26, 52, 104 and 156 using the SF-36 scoring protocol.

[3] = test system: chitotriosidase (CHITO), GM3, GPNMB, ceramide; test: Clinical study in GD-3 patients: exploratory biomarkers; type: in vivo, human
Protocol: Four exploratory biomarkers were quantified in plasma, serum and/or CSF of GD3 patients at week 4 and week 26: chitotriosidase (CHITO; an enzyme known to be elevated in GD patients) was measured in CSF and serum; GM3 (a glycosphingolipid marker known to be elevated in GD patients) was measured in CSF and plasma; and glycoprotein nonmetastatic melanoma protein B (GPNMB; reportedly a biomarker of neuropathic GD3) was measured in CSF. The results are shown in the table below as percent change from baseline at week 4 and week 26 for each parameter:
In addition, exploratory biomarkers were quantified in CSF of GD3 patients: ceramide (the precursor of GL-1), chitotriosidase (CHITO), GM3, and GPNMB.

[4] = test system: GM3 expression in C32 human melanoma cells; test: GM3 fluorescent-linked immunosorbent assay (FLISA), C32 cells; type: cell-based; settings: 48 hours
Text: Inhibition of glucosylceramide synthase activity can be measured with one or more assays. A first assay is a microsomal assay that directly measures the conversion of ceramide to glucosylceramide by HPLC. Microsomes are a source of glucosylceramide synthase activity in the microsomal assay. A second assay is a cell based, phenotypic assay that monitors cell surface expression of the downstream lipid GM3 by antibody mediated immunofluorescence. Specific protocols are provided below.
This is a phenotypic assay that measures GM3 expression in B16 mouse melanoma or C32 human melanoma cells following treatment with test compounds. Cell surface GM3 expression is determined by antibody mediated fluorescence.
Compounds are diluted in media and plated in 384 well plates in DMSO. B16 and C32 cells are assayed at densities of 20,000 cells/ml and 62,500 cells/ml, respectively, per well. Each titration curve contains 10 points that are assayed in duplicate on each test run. The plates are incubated for 48 hours at 37° C., 5% CO2, and are then washed once with TBS. Anti-GM3 antibody is added to each well and the plates are then incubated for an additional one hour at room temperature. Plates are subsequently washed twice and incubated for an additional hour with the labeled secondary antibody. Following the final incubation, the plates are washed twice and the fluorescence at λex=D640/20 nm and λem=657 nm is detected on a fluorescent reader.
The results of the microsomal assays are expressed as “GCS IC50”, which represents the concentration of the compound causing 50% inhibition of glucosylceramide synthase activity. The results of the cell-based assays are expressed as “GM3 B16 IC50” or “GM3 C32 IC50” for the B16 assay and the C32 assay, respectively. These values represent the concentration of the compound causing 50% inhibition of GM3 expression on the cell surface.

[5] = Fabry patients, 15 mg/day oral, by week 156
[6] = Fabry, 15 mg/day, Endothelial Cells, Deep Vessels, 12 weeks
[7] = Fabry, 15 mg/day, Endothelial Cells, Deep Vessels, 26 weeks
[8] = Fabry, 15 mg/day, Endothelial Cells, Deep Vessels, 52 weeks
[9] = Fabry, 15 mg/day, Endothelial Cells, Deep Vessels, 156 weeks
[10] = Fabry, 15 mg/day, Endothelial Cells, Superficial Vessels, 12 weeks
[11] = Fabry, 15 mg/day, Endothelial Cells, Superficial Vessels, 26 weeks
[12] = Fabry, 15 mg/day, Endothelial Cells, Superficial Vessels, 52 weeks
[13] = Fabry, 15 mg/day, Endothelial Cells, Superficial Vessels, 156 weeks
[14] = Fabry, 15 mg/day, Perineurium Cells, 12 weeks
[15] = Fabry, 15 mg/day, Perineurium Cells, 26 weeks
[16] = Fabry, 15 mg/day, Perineurium Cells, 52 weeks
[17] = Fabry, 15 mg/day, Perineurium Cells, 156 weeks
[18] = Fabry, 15 mg/day, Smooth Muscle Cells, Deep Vessels, 12 weeks
[19] = Fabry, 15 mg/day, Smooth Muscle Cells, Deep Vessels, 26 weeks
[20] = Fabry, 15 mg/day, Smooth Muscle Cells, Deep Vessels, 52 weeks
[21] = Fabry, 15 mg/day, Smooth Muscle Cells, Deep Vessels, 156 weeks
[22] = 15 mg/day + imiglucerase, Week 4, individual Patients 1-5
[23] = 15 mg/day + imiglucerase, Week 26, individual Patients 1-5

## CC(C)(NC(=O)O[C@@H]1CN2CCC1CC2)c1csc(-c2ccc(F)cc2)n1 [Compound 2, (S)-quinuclidin-3-yl 2-(2-(4-fluorophenyl)thiazol-4-yl)propan-2-ylcarbamate]
[1]; 3 months (N = 9)
  Volume fraction (volume of inclusions/total cytoplasmic volume): 0.29 ± 0.06
[1]; 3 months (N = 9), P 0.74
  Volume fraction, Change from baseline: −1.9%
[1]; 3 years (N = 6)
  Volume fraction (volume of inclusions/total cytoplasmic volume): 0.18 ± 0.03
[1]; 3 years (N = 6), P 0.001
  Volume fraction, Change from baseline: −38.7%
[1]; 6 months (N = 8)
  Volume fraction (volume of inclusions/total cytoplasmic volume): 0.23 ± 0.04
[1]; 6 months (N = 8), P 0.001
  Volume fraction, Change from baseline: −21.1%
[2]; [5]
  Patients with a 1-point reduction in skin GL-3 score: five
  Patients with complete clearance of GL-3 inclusions: two
  Patients with no change in skin GL-3 score: one
[2]; [6]
  Number of patients: skin GL-3 Score 1 unchanged: 1/9 (11%)
  Number of patients: skin GL-3 Score 2 dropped to 1: 2/9 (22%)
  Number of patients: skin GL-3 Score 2 unchanged: 6/9 (67%)
[2]; [7]
  Number of patients: skin GL-3 Score 1 unchanged: 1/9 (11%)
  Number of patients: skin GL-3 Score 2 dropped to 1: 2/9 (22%)
  Number of patients: skin GL-3 Score 2 unchanged: 6/9 (67%)
[2]; [8]
  Number of patients: skin GL-3 Score 2 dropped to 1: 3/6 (50%)
  Number of patients: skin GL-3 Score 2 dropped to 1.5: 1/6 (17%)
  Number of patients: skin GL-3 Score 2 unchanged: 2/6 (33%)
[2]; [9]
  Number of patients: skin GL-3 Score 1 unchanged: 1/6 (17%)
  Number of patients: skin GL-3 Score 2 dropped to 0.5: 1/6 (17%)
  Number of patients: skin GL-3 Score 2 dropped to 1: 3/6 (50%)
  Number of patients: skin GL-3 Score 2 unchanged: 1/6 (17%)
[2]; [10]
  Number of patients: skin GL-3 Score 1 raised to 2: 1/9 (11%)
  Number of patients: skin GL-3 Score 1 unchanged: 4/9 (44%)
  Number of patients: skin GL-3 Score 2 dropped to 1: 3/9 (33%)
  Number of patients: skin GL-3 Score 2 unchanged: 1/9 (11%)
[2]; [11]
  Number of patients: skin GL-3 Score 1 raised to 2: 1/9 (11%)
  Number of patients: skin GL-3 Score 1 unchanged: 4/9 (44%)
  Number of patients: skin GL-3 Score 2 dropped to 1: 3/9 (33%)
  Number of patients: skin GL-3 Score 2 unchanged: 1/9 (11%)
[2]; [12]
  Number of patients: skin GL-3 Score 1 unchanged: 3/6 (50%)
  Number of patients: skin GL-3 Score 2 dropped to 1: 2/6 (33%)
  Number of patients: skin GL-3 Score 2 unchanged: 1/6 (17%)
[2]; [13]
  Number of patients: skin GL-3 Score 1 dropped to 0: 2/6 (33%)
  Number of patients: skin GL-3 Score 1 unchanged: 1/6 (17%)
  Number of patients: skin GL-3 Score 2 dropped to 1: 3/6 (50%)
[2]; [14]
  Number of patients: skin GL-3 Score 1 raised to 2: 1/9 (11%)
  Number of patients: skin GL-3 Score 2 unchanged: 8/9 (89%)
[2]; [15]
  Number of patients: skin GL-3 Score 1 raised to 2: 1/9 (11%)
  Number of patients: skin GL-3 Score 2 unchanged: 8/9 (89%)
[2]; [16]
  Number of patients: skin GL-3 Score 1 raised to 2: 1/6 (17%)
  Number of patients: skin GL-3 Score 2 dropped to 1: 1/6 (17%)
  Number of patients: skin GL-3 Score 2 dropped to 1.5: 1/6 (17%)
  Number of patients: skin GL-3 Score 2 unchanged: 3/6 (50%)
[2]; [17]
  Number of patients: skin GL-3 Score 1 unchanged: 1/6 (17%)
  Number of patients: skin GL-3 Score 2 dropped to 1.5: 1/6 (17%)
  Number of patients: skin GL-3 Score 2 unchanged: 4/6 (67%)
[2]; [18]
  Number of patients: skin GL-3 Score 1.5 raised to 2: 2/9 (22%)
  Number of patients: skin GL-3 Score 2 unchanged: 7/9 (78%)
[2]; [19]
  Number of patients: skin GL-3 Score 1.5 unchanged: 2/9 (22%)
  Number of patients: skin GL-3 Score 2 unchanged: 7/9 (78%)
[2]; [20]
  Number of patients: skin GL-3 Score 1.5 raised to 2: 1/5 (20%)
  Number of patients: skin GL-3 Score 2 unchanged: 4/5 (80%)
[2]; [21]
  Number of patients: skin GL-3 Score 1.5 raised to 2: 1/6 (17%)
  Number of patients: skin GL-3 Score 2 dropped to 1: 1/6 (17%)
  Number of patients: skin GL-3 Score 2 dropped to 1.5: 1/6 (17%)
  Number of patients: skin GL-3 Score 2 unchanged: 3/6 (50%)
[3]; 15 mg/day + imiglucerase, 4, 26 and 52 weeks, the four of six patients measurable at baseline
  GM3 in CSF: undetectable
[3]; [22]
  CHITO in CSF, percent change from baseline: −5% and +11% and +9% and −6% (2×)
  CHITO in Serum, percent change from baseline: −11% and +8% and −7% and −12% and −1%
  GM3 in CSF, percent change from baseline: −51% and −59% (2×) and 0%
  GM3 in Plasma, percent change from baseline: −70% and −63% and −65% and −62% and −47%
  GPNMB in CSF, percent change from baseline: −63% and +30% and +9% and −6% and −2%
[3]; [23]
  CHITO in CSF, percent change from baseline: −10% and −11% and +20% and −1% and +68%
  CHITO in Serum, percent change from baseline: −43% and −55% and −1% and +98% and −11%
  GM3 in CSF, percent change from baseline: −51% and 0% (2×) and −59% (2×)
  GM3 in Plasma, percent change from baseline: −86% and −69% and −74% and −72% and +10%
  GPNMB in CSF, percent change from baseline: −14% and 0% and +45% and +10% and −8%
[3]; 15 mg/day + imiglucerase, after 52 weeks
  CSF concentrations of ceramide, CHITO or GPNMB: no significant changes
[4]
  IC50: 9.6 nM

Source: patent publication US20220016092A1, “METHODS FOR TREATING SYMPTOMS AND DISORDERS ASSOCIATED WITH LYSOSOMAL STORAGE DISEASES” (GENZYME CORPORATION, priority 2019, published 2022)
